This assay relates to TRAMP-C1 tumor cells. The experiment in a line: Tumor study with TRAMP-C1 tumors: DNA vaccine pTVG-AR co-delivered with TLR agonists. It is filed as in vivo, C57BL/6 mice. The following applies: administered with a DNA cancer vaccine in mice; compared with vaccine alone. An excerpt: FIG. 6. Combinations of TLR agonists improve the anti-tumor efficacy of a DNA vaccine in a prostate cancer tumor model. C57BL/6 mice were implanted subcutaneously with TRAMP-C1 tumor cells. Mice were immunized intradermally weekly with control vector (pTVG4) or DNA encoding AR ligand-binding domain (pTVG-AR) and delivered alone or co-delivered with TLR1/2, TLR3 and/or TLR9 agonists. (A) shown are the growth curves for each group (n=6 animals per group). (B) Survival plots using the time to death or when tumors reached 2 cm3 in size, whichever occurred first. (C) Tumors obtained at necropsy were evaluated for the percentage of infiltrating CD45^+ cells, CD8^+ T cells among CD45^+ cells, and Treg cells (CD25^+Foxp3^+) among CD4^+CD45^+ cells. (D) Tumor-infiltrating CD8+ T cells were evaluated for 4-1BB and PD-1 expression by flow cytometry.
FIG. 11. Combinations of TLR agonists improve the anti-tumor efficacy of a DNA vaccine in a prostate cancer tumor model. […]
Six- to ten-week-old male C57BL/6 mice were inoculated with 1×10^6 TRAMP-C1 cells, administered subcutaneously with matrigel. […] TLR agonist(s) were co-administered with the vaccine intradermally, and tumor volumes were measured as described above. Obtained tumors were digested in collagenase and DNAse I for 1 hour at 37° C., passed through a […] screen, and analyzed by flow cytometry.

For ODN 1826, the tumor growth suppression result is recorded as “improved the tumor growth suppression”.

The values above are taken from patent US20230201341A1, “TLR3 AND TLR9 AGONISTS AS VACCINE ADJUVANTS FOR ANTI-CANCER DNA VACCINES” (WISCONSIN ALUMNI RESEARCH FOUNDATION, priority 2021, published 2023).
